Data: patent EP0246774A1, “Chemical compounds” (SMITH KLINE & FRENCH LABORATORIES LIMITED, priority 1986, dated 1987)

System: histamine stimulated gastric acid secretion
Test: Rat lumen perfused stomach, histamine stimulated gastric acid secretion (modified Ghosh and Schild procedure)
Type: in vivo
Settings: intravenous administration; for % inhibition at µ/kg: dose not given
From the text: A. Rat : Lumen perfused stomach (histamine stimulated gastric acid secretion).
Using a modification of the procedure described by Ghosh and Schild (Br. J. Pharmacology, 13, 54, 1958), ED50 values after intravenous administration were obtained as follows: […]

SMILES | ED50 [µmol/kg] | % inhibition at µ/kg [%]
COc1ccc2[nH]c([S+]([O-])Cc3nccc(N4CCOCC4)c3F)nc2c1 (stereo not shown) [Example 2, 5-methoxy-2-(4-morpholino-3-fluoro-2-pyridylmethylsulphinyl)-(lH)-benzimidazole] | 0.7 | –
COc1ccc2[nH]c([S+]([O-])Cc3cc(N4CCOCC4)c(F)cn3)nc2c1 (stereo not shown) [Example 4, 5-methoxy-2-(4-morpholino-5-fluoro-2-pyridvlmethylsulphinyl)-(lH)-benzimidazole] | – | 51
COc1ccc2[nH]c([S+]([O-])Cc3nccc(N(C)C)c3F)nc2c1 (stereo not shown) [Example 6, 5-methoxy-2-(4-dimethylamino-3-fluoro-2-pyridylmethylsulphinyl)-(1H)-benzimidazole] | – | 26
COc1ccc2[nH]c([S+]([O-])Cc3cc(N(C)C)c(F)cn3)nc2c1 (stereo not shown) [Example 8, 5-methoxy-2-(4-dimethylamino-5-fluoro-2-pyridylmethylsulphinyl)-(1H)-benzimidazole] | – | 37
COc1cc2nc([S+]([O-])Cc3nccc(N4CCOCC4)c3F)[nH]c2cc1OC (stereo not shown) [Example 12, 5,6-dimethoxy-2-(4-morpholino-3-fluoro-2-pyridylmethylsulphinvl)-(lH)-benzimidazole] | – | 33
COc1cc2[nH]c([S+]([O-])Cc3nccc(N4CCOCC4)c3F)nc2cc1C (stereo not shown) [Example 14, 5-methyl-6-methoxy-2-(4-morpholino-3-fluoro-2-pyridylmethylsulphinyl)-(lH)-benzimidazole] | 1.51 | –
COc1cc2nc([S+]([O-])Cc3nccc(N(C)C)c3F)[nH]c2cc1OC (stereo not shown) [Example 16, 5,6-dimethoxy-2-(4-dimethylamino-3-fluoro-2-pyridylmethylsulphinyl)-(lH)-benzimidazole] | – | 46
